Measurements from patent publication US20080318842A1, “Cyclic Isodityrosine Derivatives” (priority 2004, published 2008).
Converted amounts (≈) assume the structure as drawn. Where two headings read alike, the source gives them in different places.

Key:
MRSA K24 strain = experiment: Imipenem activity-potentiating effect, paper-disc method on plate containing imipenem; type: cell-based, methicillin-resistant Staphylococcus aureus; settings: for MRSA (mm) [10 μg/6 mm disc]: diameter of inhibition circle, 10 μg agent per 6 mm paper disc, plate with imipenem 10 μg/mL, 37° C., 20 hours
Experimental: In this example, clinically isolated MRSA K24 strain was used as an assay strain. A plate for control was prepared by adding 1.5% of agar (manufactured by Shimizu Shokuhin Kaisha, Ltd.) to Mueller-Hinton Broth (manufactured by DIFCO Laboratories), and a plate for assay was prepared by adding imipenem (trade name: Tienam for intramuscular injection, titer: 0.5, manufactured by Banyu Pharmaceutical Co., Ltd.) to the above composition so that the final concentration of imipenem was 10 μg/mL. These plates were used as assay plates. An inoculum solution was prepared by culturing the assay strain in Mueller-Hinton Broth for one night, and diluting the culture solution with the same culture medium so as to have a concentration of 0.5 McFarland units (about 10^8 cfu/mL). This inoculum solution was applied on each of the plates with a sterile cotton swab in accordance with the National Committee For Clinical Laboratory Standards (NCCLS) method. The antibacterial activities against the assay strain in the plates were evaluated by a paper-disc method as follows. Paper discs with a diameter of 6 mm impregnated with 10 μg of assay medical agents (eurypamides A, A′, B, and D, and Compounds (1) to (12)) were placed on each of the plates, and the plates were cultured at 37° C. for 20 hours.
On the plate for control, the assay strain was grown under the paper discs. […] In addition, the assay strain could be grown on the plate for assay. […] If the compound impregnated in the paper disc acts in combination with imipenem to exert anti-MRSA activity, growth of the assay strain would not be observed under and around the paper disc. Therefore, in this example, the imipenem activity-potentiating effect for MRSA is represented by a diameter of an inhibition circle (the diameter passing through the center of the paper disc) on the assay plates.

[1] = tested on: mouse peritoneal macrophages; experiment: Inhibition of production of cholesteryl ester from [14C] oleic acid in mouse peritoneal macrophages; type: cell-based; settings: for IC50: Peritoneal macrophage
Experimental: Production of a cholesteryl ester in mouse peritoneal macrophages was performed by partly modifying the method by Nishikawa et al (Nishikawa et al., the Journal of Biological Chemistry (JBC) 265, pp. 5226-5231, 1990). Mouse peritoneal macrophages were prepared from an ICR female mouse as follows. First, cells were isolated from the mouse peritoneal cavity using a Hank's balanced salt solution (HBSS) and then suspended in a GIT medium so as to have a concentration of 2×10^6 cells/mL. Subsequently, 0.25 mL of the suspension was placed in each of 48 wells on a plastic culture plate, and the plate was cultured in the presence of 5% CO2 at 37° C. for two hours. In order to remove non-adhesive cells, each well was then washed with 0.25 mL of an HBSS three times. Finally, 0.25 mL of a culture medium A (Dulbecco's modified Eagle's medium (DMEM) containing 100 u/mL of penicillin, 100 μg/mL of streptomycin, and an 8% lipoprotein-free serum) was added thereto.
The effect of inhibiting the synthesis of a cholesteryl ester of the agents (eurypamides A, A′, B, and D, and Compounds (1) to (12)) in the macrophages thus prepared was evaluated as follows: The amount of [^14C] cholesteryl ester and [^14C] triacylglycerol synthesized from [^14C] oleic acid was measured as follows, and a concentration of the agent at which the synthesis was inhibited by 50% (IC50: μg/mL) was determined.
First, the macrophages (5×10^5 cells/0.25 mL/well) were cultured in a plastic culture plate with 48 wells. Subsequently, 5 μL of [^14C] oleic acid (1 nmol, 0.05 μCi, which was dissolved in a phosphate buffered saline (PBS) containing 10% ethanol), liposome (having a composition of phosphatidylcholine/phosphatidylserine/diacetylphosphate/cholesterol=10/10/2/5 (nmol) in 10 μL of 0.3 M glucose), and 2.5 μL of each agent dissolved in methanol were added to each well. The plate was cultured for 14 hours, and the culture medium was then removed. Each of the wells was washed with a PBS three times. Subsequently, 0.25 mL of a PBS containing 0.1% (w/v) sodium dodecyl sulfate (SDS) was added to each well to lyse the cells. Lipid in the cells was extracted by the method by Bligh & Dyer (Bligh & Dyer, Can. J. Biochem. Physiol., 37, pp. 911-917, 1959). The volume of the organic solvent was reduced by centrifugation in vacuum. The solution was spotted on a thin-layer chromatography (TLC) plate (silica gel […], thickness: 0.5 mm, manufactured by Merck Ltd.) and developed with hexane/diethyl ether/acetic acid (70/30/1, v/v). The amounts of separated [^14C] cholesteryl oleate and [^14C] triacylglycerol were analyzed with a bioimage analyzer (BAS2000 manufactured by FUJIFILM Corporation).

[2] = Mus musculus, 14 h, read-out: Macrophage [IC50 μg/mL]
[3] = Mus musculus, read-out: IC50 of inhibiting the production of cholesteryl oleate
[4] = Mus musculus, synthesis of [14C] cholesteryl ester from [14C] oleic acid, 14 hours culture, read-out: Macrophage [IC50 μg/mL]
[5] = mouse peritoneal macrophages, read-out: IC50 of inhibiting the production of cholesteryl oleate
[6] = synthesis of [14C] cholesteryl ester from [14C] oleic acid, 14 hours culture

| Compound | MRSA (mm) [10 μg/6 mm disc] (MRSA K24 strain) | imipenem activity-potentiating effect (anti-MRSA activity in combination with imipenem), in words (MRSA K24 strain) | IC50 [1, 2] | IC50 [1, 3] | effect of inhibiting the synthesis of a cholesteryl ester in macrophages, in words [1] | IC50 [1, 4] | IC50 [1, 5] | Macrophage [IC50 μg/mL] [1, 6] |
| --- | --- | --- | --- | --- | --- | --- | --- | --- |
| COC(=O)C1Cc2cc(Br)c(c(Br)c2)Oc2cc(cc(I)c2O)C[C@H](NC(=O)OCc2ccccc2)C(=O)N[C@@H]([C@H](C)OCc2ccccc2)C(=O)N1 (some centres unmarked) [Compound (1), N-Cbz-Thr(O-benzyl)-dibromo-iodo-eurypamide B methyl ester] | 8 mm | potentiate | 3 µg/mL (≈ 3.11 µM) | 3 µg/mL (≈ 3.11 µM) | have an effect of inhibiting the synthesis of a cholesteryl ester in macrophages |  |  |  |
| COC(=O)C1Cc2cc(Br)c(c(Br)c2)Oc2cc(cc(I)c2O)C[C@H](NC(=O)OC(C)(C)C)C(=O)N[C@@H]([C@H](C)OCc2ccccc2)C(=O)N1 (some centres unmarked) [Compound (2), N-Boc-Thr(O-benzyl)-dibromo-iodo-eurypamide B methyl ester] | 8 mm | potentiate | 3 µg/mL (≈ 3.22 µM) | 3 µg/mL (≈ 3.22 µM) | have an effect of inhibiting the synthesis of a cholesteryl ester in macrophages |  |  |  |
| C[C@@H](O)[C@@H]1NC(=O)[C@@H](NC(=O)OC(C)(C)C)Cc2cc(I)c(O)c(c2)Oc2c(Br)cc(cc2Br)CC(C(=O)O)NC1=O (some centres unmarked) [Compound (3), N-Boc-dibromo-iodo-eurypamide B] | 10 mm | potentiate | > 10 µg/mL |  |  |  |  |  |
| COC(=O)C1Cc2cc(Br)c(c(Br)c2)Oc2cc(cc(I)c2O)C[C@H](N)C(=O)N[C@@H]([C@@H](C)O)C(=O)N1 (some centres unmarked) [Compound (4), dibromo-iodo-eurypamide B methyl ester] | 8 mm | potentiate |  |  |  | > 10 µg/mL |  |  |
| COC(=O)[C@@H]1Cc2cc(Br)c(c(Br)c2)Oc2cc(cc(I)c2O)C[C@H](N)C(=O)N[C@@H](C(C)OCc2ccccc2)C(=O)N1 (some centres unmarked) [Compound (5), Thr(O-benzyl)-dibromo-iodo-eurypamide B methyl ester] | 8 mm | potentiate |  |  |  | > 10 µg/mL |  |  |
| COC(=O)[C@@H]1Cc2cc(Br)c(c(Br)c2)Oc2cc(cc(I)c2O)C[C@H](NC(=O)OCC2c3ccccc3-c3ccccc32)C(=O)N[C@@H](C(C)OCc2ccccc2)C(=O)N1 (some centres unmarked) [Compound (6)] |  | do not potentiate |  |  | have an effect of inhibiting the synthesis of a cholesteryl ester in macrophages | 0.32 µg/mL (≈ 0.304 µM) | 0.32 µg/mL (≈ 0.304 µM) |  |
| COC(=O)[C@@H]1Cc2cc(Br)c(c(Br)c2)Oc2cc(cc(I)c2O)C[C@H](NC(=O)CCCCCNC(=O)OC(C)(C)C)C(=O)N[C@@H](C(C)OCc2ccccc2)C(=O)N1 (some centres unmarked) [Compound (7)] |  | do not potentiate |  |  | have an effect of inhibiting the synthesis of a cholesteryl ester in macrophages | 4.2 µg/mL (≈ 4.02 µM) | 4.2 µg/mL (≈ 4.02 µM) |  |
| COC(=O)[C@@H]1Cc2cc(Br)c(c(Br)c2)Oc2cc(cc(I)c2O)C[C@H](NC(=O)C(Cc2ccccc2)NC(=O)OC(C)(C)C)C(=O)N[C@@H](C(C)OCc2ccccc2)C(=O)N1 (some centres unmarked) [Compound (8)] |  | do not potentiate |  |  | have an effect of inhibiting the synthesis of a cholesteryl ester in macrophages | 5 µg/mL (≈ 4.64 µM) | 5 µg/mL (≈ 4.64 µM) |  |
| CC(OCc1ccccc1)[C@@H]1NC(=O)[C@@H](NC(=O)OC(C)(C)C)Cc2cc(I)c(O)c(c2)Oc2c(Br)cc(cc2Br)C[C@@H](C(=O)O)NC1=O (some centres unmarked) [Compound (9)] | 17 mm | potentiate | > 10 µg/mL |  |  |  |  |  |
| CC(OCc1ccccc1)[C@@H]1NC(=O)[C@@H](N)Cc2cc(I)c(O)c(c2)Oc2c(Br)cc(cc2Br)C[C@@H](C(=O)O)NC1=O (some centres unmarked) [Compound (11)] | 12 mm | potentiate |  |  |  | > 10 µg/mL |  |  |
| COC(=O)[C@@H]1Cc2cc(Br)c(c(Br)c2)Oc2cc(cc(I)c2O)C[C@H](NC(=O)OC(C)(C)C)C(=O)N[C@@H](C(C)O)C(=O)N1 (some centres unmarked) [Compound (12), N-Boc-dibromo-iodo-eurypamide B methyl ester] | 9 mm | potentiate | > 10 µg/mL |  |  |  |  |  |
| C[C@@H](O)[C@@H]1NC(=O)[C@@H](N)Cc2ccc(O)c(c2)Oc2ccc(cc2)C[C@@H](C(=O)O)NC1=O [Eurypamide B, reference compound] |  |  |  |  |  |  |  | — (The symbol “-” in the column of macrophage in Table 1 means that the compound did not exhibit inhibition in its amount of 10 μg/mL) |
| Eurypamide A [reference compound] |  |  |  |  |  |  |  | — (The symbol “-” in the column of macrophage in Table 1 means that the compound did not exhibit inhibition in its amount of 10 μg/mL) |
| Eurypamide A′ [reference compound] |  |  |  |  |  |  |  | — (The symbol “-” in the column of macrophage in Table 1 means that the compound did not exhibit inhibition in its amount of 10 μg/mL) |
| Eurypamide D [reference compound] |  |  |  |  |  |  |  | — (The symbol “-” in the column of macrophage in Table 1 means that the compound did not exhibit inhibition in its amount of 10 μg/mL) |
